Laboratory results reported in ChEMBL document CHEMBL1152524, “Preparation of C-23 esterified silybin derivatives and evaluation of their lipid peroxidation inhibitory and DNA protective properties” (Bioorg Med Chem, 2009).
The source made the active and inactive calls. The calls are words filed in the database; no cut-off is given here.

Columns and labels:
[1] = system: Radical scavenging activity; test: Antioxidant activity assessed as DPPH radical scavenging activity at 100 ug/mL after 30 mins; format: functional
[2] = Antioxidant activity assessed as superoxide anion scavenging activity at 100 ug/mL after 5 mins by NBT reduction assay; format: functional
[3] = Antioxidant activity assessed as ferrous ion chelating activity after 30 mins by spectrophotometry; format: functional
Liver = test: Inhibition of FeSO4-induced lipid peroxidation in Sprague-Dawley rat liver homogenate assessed as decrease in malondialdehyde level after 1 hr by TBA assay; format: functional, tissue-based
[4] = Antioxidant activity assessed as protection against H2O2-induced pcDNA3.1(+) scission at 100 ug/mL after 30 mins by […] staining-based gel electrophoresis; format: functional
[5] = system: Radical scavenging activity; test: Antioxidant activity assessed as DPPH radical scavenging activity after 30 mins; format: functional
[6] = Antioxidant activity assessed as superoxide anion scavenging activity after 5 mins by NBT reduction assay; format: functional
[7] = Antioxidant activity assessed as protection against H2O2-induced pcDNA3.1(+) scission after 30 mins by […] staining-based gel electrophoresis; format: functional

Row | SMILES | Activity [1] [%] | Activity [2] | EC50 [3] [µM] | IC50 (Liver) [µM] | Activity [4] | EC50 [5] [µM] | EC50 [6] [µM] | Activity (Liver) | Activity [7]
1 | COc1cc(C2Oc3cc([C@H]4Oc5cc(O)cc(O)c5C(=O)[C@@H]4O)ccc3OC2COC(=O)c2cccc(Cl)c2)ccc1O (some centres not stated) | 5.6 | 7% | 106 | 14.2 | Active | – | – | – | –
2 | COc1cc(C2Oc3cc([C@H]4Oc5cc(O)cc(O)c5C(=O)[C@@H]4O)ccc3OC2COC(=O)c2cc(N)cc([N+](=O)[O-])c2)ccc1O (some centres not stated) | 59.9 | 54.3% | > 300 | 0.2 | inactive | 127 | 129 | Dose-dependent effect | –
3 | COc1cc(C2Oc3cc([C@H]4Oc5cc(O)cc(O)c5C(=O)[C@@H]4O)ccc3OC2COC(=O)c2ccc(OC)c(OC)c2)ccc1O (mixture of isomers) | 34.2 | 37.2% | 77 | 16 | Active | – | – | – | Dose-dependent effect
4 | COc1cc(C2Oc3cc([C@H]4Oc5cc(O)cc(O)c5C(=O)[C@@H]4O)ccc3OC2COC(=O)c2ccccc2)ccc1O (relative stereo) | 40.4 | inactive | 105 | 12.7 | Active | – | – | – | Dose-dependent effect
5 | COc1cc(C2Oc3cc([C@H]4Oc5cc(O)cc(O)c5C(=O)[C@@H]4O)ccc3OC2COC(=O)/C=C/c2ccc(Cl)cc2)ccc1O (relative stereo) | 18.4 | 9.1% | 87.9 | 12 | Active | – | – | – | Dose-dependent effect
6 | COc1cc(C2Oc3cc([C@H]4Oc5cc(O)cc(O)c5C(=O)[C@@H]4O)ccc3OC2COC(=O)c2ccc(N)cc2)ccc1O (relative stereo) | 16.4 | 43.3% | 128 | 14.3 | inactive | – | – | – | –
7 | COc1cc(C2Oc3cc([C@H]4Oc5cc(O)cc(O)c5C(=O)[C@@H]4O)ccc3OC2COC(=O)/C=C/c2ccc(Br)cc2)ccc1O (relative stereo) | 19.8 | 6.5% | 88.9 | 16.3 | Active | – | – | – | Dose-dependent effect
8 | COc1cc(C2Oc3cc([C@H]4Oc5cc(O)cc(O)c5C(=O)[C@@H]4O)ccc3OC2COC(=O)c2ccc3c(c2)OCO3)ccc1O (relative stereo) | 31.7 | 7.3% | 108 | 20.8 | inactive | – | – | – | –
9 | COc1cc(C2Oc3cc([C@H]4Oc5cc(O)cc(O)c5C(=O)[C@@H]4O)ccc3OC2COC(=O)/C=C/c2ccc(C)cc2)ccc1O (relative stereo) | 33.3 | 7.3% | 136 | 14.7 | Active | – | – | – | –
10 | COc1cc(C2Oc3cc([C@H]4Oc5cc(O)cc(O)c5C(=O)[C@@H]4O)ccc3OC2COC(=O)c2cc([N+](=O)[O-])cc([N+](=O)[O-])c2)ccc1O (relative stereo) | 22.1 | 32% | 205 | 14.6 | inactive | – | – | – | –
11 | COc1cc(C2Oc3cc([C@H]4Oc5cc(O)cc(O)c5C(=O)[C@@H]4O)ccc3OC2COC(=O)c2ccc([N+](=O)[O-])cc2)ccc1O (relative stereo) | 38.6 | inactive | > 300 | 12.6 | inactive | – | – | – | –
12 | COc1ccc(C(=O)OCC2Oc3ccc([C@H]4Oc5cc(O)cc(O)c5C(=O)[C@@H]4O)cc3OC2c2ccc(O)c(OC)c2)cc1 (relative stereo) | 37.1 | 6.5% | 73.3 | 21 | inactive | – | – | – | –
13 | COc1cc(C2Oc3cc([C@H]4Oc5cc(O)cc(O)c5C(=O)[C@@H]4O)ccc3OC2COC(=O)c2cc(OC)c(OC)c(OC)c2)ccc1O (relative stereo) | 52.6 | 36.1% | 94.8 | 25.7 | Active | 145 | – | – | Dose-dependent effect
14 | CCOC(=O)CC(=O)OCC1Oc2ccc([C@H]3Oc4cc(O)cc(O)c4C(=O)[C@@H]3O)cc2OC1c1ccc(O)c(OC)c1 (relative stereo) | 16.2 | 60.1% | 101 | 33.4 | Active | – | 113 | – | –
15 | O=C([O-])CN(CCN(CC(=O)[O-])CC(=O)O)CC(=O)O.[Na+].[Na+] [EDETATE DISODIUM ANHYDROUS] | – | – | 16.2 | – | – | – | – | – | –
16 | O=c1c(O)c(-c2ccc(O)c(O)c2)oc2cc(O)cc(O)c12 [QUERCETIN] | 96.8 | 93.8% | 236 | 1.8 | – | 5.5 | 31.8 | Dose-dependent effect | –
17 | COc1cc(C2Oc3cc([C@H]4Oc5cc(O)cc(O)c5C(=O)[C@@H]4O)ccc3OC2CO)ccc1O (some centres not stated) [SILIBININ] | 16.6 | 38.2% | 196 | 22.7 | – | – | – | – | –
